Measured values as given in ChEMBL document CHEMBL4507292 (2021).

Legend:
D(1A) dopamine receptor = D(1A) dopamine receptor (Homo sapiens, UniProt P21728); test: GPCRScan assay: inhibition of D1; set-up: radioligand conc. used [nm] 0.6 – 1.3, parental cells HEKT
[1] = biological target: Sigma non-opioid intracellular receptor 1 (Homo sapiens, UniProt Q99720); test: GPCRScan assay: inhibition of Sigma 1; set-up: radioligand conc. used [nm] 4.0 – 5.0, parental cells HEKT
[2] = system: Tyrosine-protein kinase ABL1 (Homo sapiens), P00519 [H396P]; conditions: Compound concentration 1000.0 nM
[3] = biological target: Activin receptor type-1B (Homo sapiens) (UniProt P36896); conditions: Compound concentration 1000.0 nM
[4] = biological target: NUAK family SNF1-like kinase 1 (Homo sapiens) (UniProt O60285); conditions: Compound concentration 1000.0 nM
[5] = biological target: Aurora kinase A (Homo sapiens) (UniProt O14965); conditions: Compound concentration 1000.0 nM
[6] = biological target: Cytoplasmic tyrosine-protein kinase BMX (Homo sapiens) (UniProt P51813); conditions: Compound concentration 1000.0 nM
[7] = biological target: Serine/threonine-protein kinase BRSK1 (Homo sapiens) (UniProt Q8TDC3); conditions: Compound concentration 1000.0 nM
[8] = biological target: Calcium/calmodulin-dependent protein kinase type 1G (Homo sapiens) (UniProt Q96NX5); conditions: Compound concentration 1000.0 nM
[9] = biological target: Calcium/calmodulin-dependent protein kinase kinase 1 (Homo sapiens) (UniProt Q8N5S9); conditions: Compound concentration 1000.0 nM
[10] = biological target: Cyclin-dependent kinase 13 (Homo sapiens) (UniProt Q14004); conditions: Compound concentration 1000.0 nM
[11] = biological target: Cyclin-dependent kinase-like 1 (Homo sapiens) (UniProt Q00532); conditions: Compound concentration 1000.0 nM
[12] = biological target: Casein kinase I isoform alpha (Homo sapiens) (UniProt P48729); conditions: Compound concentration 1000.0 nM
[13] = biological target: Casein kinase I isoform gamma-2 (Homo sapiens) (UniProt P78368); conditions: Compound concentration 1000.0 nM
[14] = biological target: Serine/threonine-protein kinase DCLK2 (Homo sapiens) (UniProt Q8N568); conditions: Compound concentration 1000.0 nM
Serine/threonine-protein kinase DCLK2 (Homo sapiens), sequence (Q8N568 whole entry): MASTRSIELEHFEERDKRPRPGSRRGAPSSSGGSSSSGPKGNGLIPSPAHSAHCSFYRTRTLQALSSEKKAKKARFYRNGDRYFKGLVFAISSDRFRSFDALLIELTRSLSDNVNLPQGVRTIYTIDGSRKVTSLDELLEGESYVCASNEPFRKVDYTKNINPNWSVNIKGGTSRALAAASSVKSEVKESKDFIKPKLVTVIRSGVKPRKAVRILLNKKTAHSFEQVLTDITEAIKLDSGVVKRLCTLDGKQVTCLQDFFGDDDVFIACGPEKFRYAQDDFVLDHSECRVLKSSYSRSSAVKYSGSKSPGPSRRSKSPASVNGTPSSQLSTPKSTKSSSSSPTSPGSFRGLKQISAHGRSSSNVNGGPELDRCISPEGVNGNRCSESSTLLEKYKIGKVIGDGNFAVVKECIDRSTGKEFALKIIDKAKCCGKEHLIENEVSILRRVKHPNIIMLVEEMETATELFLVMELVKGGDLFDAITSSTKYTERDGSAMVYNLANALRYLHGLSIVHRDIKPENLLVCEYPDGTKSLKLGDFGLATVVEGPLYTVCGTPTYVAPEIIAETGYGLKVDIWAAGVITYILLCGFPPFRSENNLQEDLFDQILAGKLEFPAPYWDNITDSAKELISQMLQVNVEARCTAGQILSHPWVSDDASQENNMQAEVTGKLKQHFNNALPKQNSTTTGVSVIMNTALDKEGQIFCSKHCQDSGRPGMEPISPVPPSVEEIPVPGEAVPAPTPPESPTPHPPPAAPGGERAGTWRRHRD

[15] = biological target: Myotonin-protein kinase (Homo sapiens) (UniProt Q09013); conditions: Compound concentration 1000.0 nM
[16] = system: Epidermal growth factor receptor (Homo sapiens), P00533 [T790M]; conditions: Compound concentration 1000.0 nM
[17] = biological target: Ephrin type-A receptor 7 (Homo sapiens) (UniProt Q15375); conditions: Compound concentration 1000.0 nM
[18] = biological target: Mitogen-activated protein kinase 15 (Homo sapiens) (UniProt Q8TD08); conditions: Compound concentration 1000.0 nM
[19] = biological target: Beta-adrenergic receptor kinase 1 (Homo sapiens) (UniProt P25098); conditions: Compound concentration 1000.0 nM
[20] = biological target: Serine/threonine-protein kinase ICK (Homo sapiens) (UniProt Q9UPZ9); conditions: Compound concentration 1000.0 nM
[21] = biological target: Inhibitor of nuclear factor kappa-B kinase subunit epsilon (Homo sapiens) (UniProt Q14164); conditions: Compound concentration 1000.0 nM
[22] = biological target: Mitogen-activated protein kinase 9 (Homo sapiens) (UniProt P45984); conditions: Compound concentration 1000.0 nM
[23] = biological target: Tyrosine-protein kinase Lck (Homo sapiens) (UniProt P06239); conditions: Compound concentration 1000.0 nM
[24] = biological target: LIM domain kinase 2 (Homo sapiens) (UniProt P53671); conditions: Compound concentration 1000.0 nM
[25] = biological target: Leucine-rich repeat serine/threonine-protein kinase 2 (Homo sapiens) (UniProt Q5S007); conditions: Compound concentration 1000.0 nM
[26] = biological target: Leukocyte tyrosine kinase receptor (Homo sapiens) (UniProt P29376); conditions: Compound concentration 1000.0 nM
[27] = biological target: Dual specificity mitogen-activated protein kinase kinase 3 (Homo sapiens) (UniProt P46734); conditions: Compound concentration 1000.0 nM
[28] = biological target: Myosin light chain kinase (Homo sapiens) (UniProt Q32MK0); conditions: Compound concentration 1000.0 nM
[29] = biological target: Mitogen-activated protein kinase kinase kinase 10 (Homo sapiens) (UniProt Q02779); conditions: Compound concentration 1000.0 nM
Mitogen-activated protein kinase kinase kinase 10 (Homo sapiens), sequence (Q02779 whole entry, looked up): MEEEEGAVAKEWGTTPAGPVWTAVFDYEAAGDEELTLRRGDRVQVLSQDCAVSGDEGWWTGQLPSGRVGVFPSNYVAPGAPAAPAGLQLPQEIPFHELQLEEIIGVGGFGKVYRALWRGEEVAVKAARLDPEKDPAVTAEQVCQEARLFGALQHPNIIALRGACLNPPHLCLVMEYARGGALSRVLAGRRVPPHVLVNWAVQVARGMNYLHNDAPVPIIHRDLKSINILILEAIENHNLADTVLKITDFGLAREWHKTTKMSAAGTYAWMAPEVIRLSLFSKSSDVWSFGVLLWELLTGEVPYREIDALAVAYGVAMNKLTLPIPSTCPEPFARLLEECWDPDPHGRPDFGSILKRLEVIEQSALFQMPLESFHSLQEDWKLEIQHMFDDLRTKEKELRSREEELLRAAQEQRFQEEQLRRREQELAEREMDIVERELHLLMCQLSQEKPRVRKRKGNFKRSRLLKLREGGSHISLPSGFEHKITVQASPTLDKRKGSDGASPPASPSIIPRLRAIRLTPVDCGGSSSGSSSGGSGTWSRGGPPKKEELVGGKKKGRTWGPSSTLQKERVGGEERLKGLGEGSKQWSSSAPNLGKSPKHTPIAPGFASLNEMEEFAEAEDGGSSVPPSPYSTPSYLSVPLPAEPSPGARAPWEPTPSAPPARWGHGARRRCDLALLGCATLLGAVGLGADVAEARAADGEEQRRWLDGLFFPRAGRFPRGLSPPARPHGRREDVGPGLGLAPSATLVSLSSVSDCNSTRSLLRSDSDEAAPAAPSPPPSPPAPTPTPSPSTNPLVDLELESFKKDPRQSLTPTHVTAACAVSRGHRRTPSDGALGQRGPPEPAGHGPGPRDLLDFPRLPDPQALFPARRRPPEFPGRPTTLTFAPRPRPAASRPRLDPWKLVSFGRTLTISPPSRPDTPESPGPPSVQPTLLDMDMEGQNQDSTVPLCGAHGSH

[30] = biological target: Mitogen-activated protein kinase kinase kinase 11 (Homo sapiens) (UniProt Q16584); conditions: Compound concentration 1000.0 nM
[31] = biological target: Macrophage-stimulating protein receptor (Homo sapiens) (UniProt Q04912); conditions: Compound concentration 1000.0 nM
Macrophage-stimulating protein receptor (Homo sapiens), sequence (Q04912 25-304 limits assumed): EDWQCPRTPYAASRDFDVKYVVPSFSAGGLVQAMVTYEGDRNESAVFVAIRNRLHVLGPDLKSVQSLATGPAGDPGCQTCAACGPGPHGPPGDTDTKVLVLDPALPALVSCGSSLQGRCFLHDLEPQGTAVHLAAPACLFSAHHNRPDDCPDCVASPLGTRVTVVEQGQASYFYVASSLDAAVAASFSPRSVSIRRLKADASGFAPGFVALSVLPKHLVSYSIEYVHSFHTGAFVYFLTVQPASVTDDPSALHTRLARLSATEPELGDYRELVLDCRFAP
Macrophage-stimulating protein receptor (Homo sapiens), sequence (Q04912 310-1400 limits assumed): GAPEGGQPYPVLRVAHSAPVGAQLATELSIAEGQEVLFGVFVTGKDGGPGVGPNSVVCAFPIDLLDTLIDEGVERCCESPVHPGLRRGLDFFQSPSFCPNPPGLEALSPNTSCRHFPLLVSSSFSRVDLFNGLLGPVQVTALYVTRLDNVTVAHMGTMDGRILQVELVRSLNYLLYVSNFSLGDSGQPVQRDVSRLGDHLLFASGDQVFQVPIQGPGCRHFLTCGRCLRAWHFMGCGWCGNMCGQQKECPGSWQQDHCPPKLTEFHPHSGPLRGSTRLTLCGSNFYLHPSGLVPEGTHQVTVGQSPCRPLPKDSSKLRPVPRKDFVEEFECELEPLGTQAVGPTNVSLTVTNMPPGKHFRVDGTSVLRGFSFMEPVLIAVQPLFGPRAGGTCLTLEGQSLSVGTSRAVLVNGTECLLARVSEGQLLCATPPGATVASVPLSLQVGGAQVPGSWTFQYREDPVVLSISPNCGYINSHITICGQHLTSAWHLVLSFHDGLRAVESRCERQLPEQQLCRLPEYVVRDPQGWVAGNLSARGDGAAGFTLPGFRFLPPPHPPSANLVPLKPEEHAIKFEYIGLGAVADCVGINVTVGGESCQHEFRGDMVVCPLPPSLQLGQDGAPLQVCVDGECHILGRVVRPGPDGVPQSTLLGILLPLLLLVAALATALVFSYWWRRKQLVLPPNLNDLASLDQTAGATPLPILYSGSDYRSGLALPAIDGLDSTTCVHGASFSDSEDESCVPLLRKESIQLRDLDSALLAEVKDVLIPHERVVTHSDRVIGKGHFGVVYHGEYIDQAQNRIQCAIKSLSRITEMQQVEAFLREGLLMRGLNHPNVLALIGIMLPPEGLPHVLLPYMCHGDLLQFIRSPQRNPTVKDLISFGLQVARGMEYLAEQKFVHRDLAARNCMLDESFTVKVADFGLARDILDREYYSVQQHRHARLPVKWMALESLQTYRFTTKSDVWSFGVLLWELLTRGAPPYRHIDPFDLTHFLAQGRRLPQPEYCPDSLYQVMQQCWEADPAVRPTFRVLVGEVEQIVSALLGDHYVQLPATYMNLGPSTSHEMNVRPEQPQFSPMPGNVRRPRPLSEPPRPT

[32] = biological target: Serine/threonine-protein kinase Nek7 (Homo sapiens) (UniProt Q8TDX7); conditions: Compound concentration 1000.0 nM
[33] = biological target: Cyclin-dependent kinase 18 (Homo sapiens) (UniProt Q07002); conditions: Compound concentration 1000.0 nM
[34] = biological target: Cyclin-dependent kinase 14 (Homo sapiens) (UniProt O94921); conditions: Compound concentration 1000.0 nM
[35] = biological target: Phosphorylase b kinase gamma catalytic chain, skeletal muscle/heart isoform (Homo sapiens) (UniProt Q16816); conditions: Compound concentration 1000.0 nM
[36] = biological target: Phosphatidylinositol 4-phosphate 3-kinase C2 domain-containing subunit beta (Homo sapiens) (UniProt O00750); conditions: Compound concentration 1000.0 nM
[37] = system: Phosphatidylinositol 4,5-bisphosphate 3-kinase catalytic subunit alpha isoform (Homo sapiens), P42336 [C420R]; conditions: Compound concentration 1000.0 nM
[38] = biological target: Serine/threonine-protein kinase D2 (Homo sapiens) (UniProt Q9BZL6); conditions: Compound concentration 1000.0 nM
[39] = biological target: RAF proto-oncogene serine/threonine-protein kinase (Homo sapiens) (UniProt P04049); conditions: Compound concentration 1000.0 nM
RAF proto-oncogene serine/threonine-protein kinase (Homo sapiens), sequence (P04049 whole entry): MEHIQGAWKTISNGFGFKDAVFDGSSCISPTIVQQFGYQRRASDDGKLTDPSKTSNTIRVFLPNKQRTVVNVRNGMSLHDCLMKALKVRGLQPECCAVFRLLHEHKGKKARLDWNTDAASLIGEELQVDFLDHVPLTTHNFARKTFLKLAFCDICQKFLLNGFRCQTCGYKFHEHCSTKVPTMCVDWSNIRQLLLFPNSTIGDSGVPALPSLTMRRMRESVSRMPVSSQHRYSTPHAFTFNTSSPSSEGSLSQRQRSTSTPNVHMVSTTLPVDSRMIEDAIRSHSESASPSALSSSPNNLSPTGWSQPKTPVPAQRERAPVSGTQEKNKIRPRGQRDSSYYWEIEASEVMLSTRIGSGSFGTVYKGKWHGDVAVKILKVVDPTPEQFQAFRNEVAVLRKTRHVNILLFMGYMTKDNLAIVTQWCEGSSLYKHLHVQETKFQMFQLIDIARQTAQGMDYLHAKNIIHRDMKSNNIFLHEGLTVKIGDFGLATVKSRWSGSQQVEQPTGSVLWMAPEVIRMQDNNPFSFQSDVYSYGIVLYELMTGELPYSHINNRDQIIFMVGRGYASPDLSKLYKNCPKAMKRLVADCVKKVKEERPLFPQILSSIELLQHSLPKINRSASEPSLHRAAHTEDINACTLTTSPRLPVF

[40] = biological target: Ribosomal protein S6 kinase alpha-3 (Homo sapiens) (UniProt P51812); conditions: Compound concentration 1000.0 nM
[41] = biological target: Serine/threonine-protein kinase VRK2 (Homo sapiens) (UniProt Q86Y07); conditions: Compound concentration 1000.0 nM
[42] = biological target: Serine/threonine-protein kinase WNK4 (Homo sapiens) (UniProt Q96J92); conditions: Compound concentration 1000.0 nM
Serine/threonine-protein kinase WNK4 (Homo sapiens), sequence (Q96J92 whole entry): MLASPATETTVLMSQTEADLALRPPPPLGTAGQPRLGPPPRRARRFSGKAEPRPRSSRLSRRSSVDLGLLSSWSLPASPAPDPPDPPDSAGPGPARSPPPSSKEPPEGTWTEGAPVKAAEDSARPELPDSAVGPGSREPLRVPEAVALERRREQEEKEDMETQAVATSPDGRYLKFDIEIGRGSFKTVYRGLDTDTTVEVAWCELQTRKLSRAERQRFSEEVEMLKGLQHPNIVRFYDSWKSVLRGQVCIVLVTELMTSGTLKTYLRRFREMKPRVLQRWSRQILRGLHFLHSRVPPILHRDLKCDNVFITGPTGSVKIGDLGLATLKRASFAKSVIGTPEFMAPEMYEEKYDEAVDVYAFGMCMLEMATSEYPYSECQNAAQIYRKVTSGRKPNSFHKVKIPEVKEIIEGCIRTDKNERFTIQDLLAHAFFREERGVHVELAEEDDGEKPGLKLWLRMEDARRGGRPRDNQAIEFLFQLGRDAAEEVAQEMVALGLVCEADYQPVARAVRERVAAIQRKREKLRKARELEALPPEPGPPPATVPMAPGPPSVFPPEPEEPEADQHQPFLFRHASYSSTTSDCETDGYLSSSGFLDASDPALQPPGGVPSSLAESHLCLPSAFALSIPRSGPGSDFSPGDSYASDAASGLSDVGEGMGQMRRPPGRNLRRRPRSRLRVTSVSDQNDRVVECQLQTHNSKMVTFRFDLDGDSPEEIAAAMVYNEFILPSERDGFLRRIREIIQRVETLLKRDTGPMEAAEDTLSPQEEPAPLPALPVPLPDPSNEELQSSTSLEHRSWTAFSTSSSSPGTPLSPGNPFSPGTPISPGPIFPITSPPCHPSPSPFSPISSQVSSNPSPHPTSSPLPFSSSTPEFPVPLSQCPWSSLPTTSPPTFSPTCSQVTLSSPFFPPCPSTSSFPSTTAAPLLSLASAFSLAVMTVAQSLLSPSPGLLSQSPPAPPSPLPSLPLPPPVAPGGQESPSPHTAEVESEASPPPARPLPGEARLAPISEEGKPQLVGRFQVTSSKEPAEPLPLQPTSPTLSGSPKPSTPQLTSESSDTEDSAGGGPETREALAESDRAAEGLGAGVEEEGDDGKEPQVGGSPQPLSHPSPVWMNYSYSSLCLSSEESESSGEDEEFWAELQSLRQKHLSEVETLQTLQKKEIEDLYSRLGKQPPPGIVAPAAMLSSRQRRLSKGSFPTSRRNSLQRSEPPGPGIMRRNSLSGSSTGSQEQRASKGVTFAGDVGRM

[43] = biological target: Sodium-dependent dopamine transporter (Homo sapiens, UniProt Q01959); conditions: Compound concentration 10.0 uM
[44] = biological target: Delta-type opioid receptor (Homo sapiens) (UniProt P41143); conditions: Compound concentration 10.0 uM
[45] = biological target: Sigma intracellular receptor 2 (Homo sapiens, UniProt Q5BJF2); conditions: Compound concentration 10.0 uM

## O=C(O)c1cc(-c2ccc(C3CCNCC3)cc2)c2ccc(-c3ccc(C(F)(F)F)cc3)cc2c1 [PPTN]
D(1A) dopamine receptor
  Ki: 10000 nM
[1]
  Ki: 1180 nM
[2]
  residual activity: 86%
[3]
  residual activity: 100%
[4]
  residual activity: 100%
[5]
  residual activity: 100%
[6]
  residual activity: 100%
[7]
  residual activity: 100%
[8]
  residual activity: 100%
[9]
  residual activity: 100%
[10]
  residual activity: 100%
[11]
  residual activity: 93%
[12]
  residual activity: 83%
[13]
  residual activity: 100%
[14]
  residual activity: 100%
[15]
  residual activity: 100%
[16]
  residual activity: 96%
[17]
  residual activity: 100%
[18]
  residual activity: 100%
[19]
  residual activity: 100%
[20]
  residual activity: 100%
[21]
  residual activity: 100%
[22]
  residual activity: 100%
[23]
  residual activity: 100%
[24]
  residual activity: 100%
[25]
  residual activity: 100%
[26]
  residual activity: 100%
[27]
  residual activity: 100%
[28]
  residual activity: 100%
[29]
  residual activity: 100%
[30]
  residual activity: 100%
[31]
  residual activity: 100%
[32]
  residual activity: 100%
[33]
  residual activity: 100%
[34]
  residual activity: 100%
[35]
  residual activity: 100%
[36]
  residual activity: 100%
[37]
  residual activity: 95%
[38]
  residual activity: 100%
[39]
  residual activity: 70%
[40]
  residual activity: 80%
[41]
  residual activity: 100%
[42]
  residual activity: 100%
[43]
  inhibition: 37.7%
[44]
  inhibition: 36.4%
[45]
  inhibition: 95.6%

## Cc1c(C(=O)O)cc(-c2ccc(C3CCNCC3)cc2)c2ccc(-c3ccc(C(F)(F)F)cc3)cc12 [PPTN-NC]
D(1A) dopamine receptor
  Ki: 2150 nM
[1]
  Ki: 1170 nM
[2]
  residual activity: 99%
[3]
  residual activity: 100%
[4]
  residual activity: 100%
[5]
  residual activity: 100%
[6]
  residual activity: 100%
[7]
  residual activity: 100%
[8]
  residual activity: 100%
[9]
  residual activity: 100%
[10]
  residual activity: 100%
[11]
  residual activity: 82%
[12]
  residual activity: 81%
[13]
  residual activity: 100%
[14]
  residual activity: 100%
[15]
  residual activity: 86%
[16]
  residual activity: 87%
[17]
  residual activity: 100%
[18]
  residual activity: 100%
[19]
  residual activity: 100%
[20]
  residual activity: 100%
[21]
  residual activity: 100%
[22]
  residual activity: 100%
[23]
  residual activity: 100%
[24]
  residual activity: 100%
[25]
  residual activity: 100%
[26]
  residual activity: 100%
[27]
  residual activity: 100%
[28]
  residual activity: 94%
[29]
  residual activity: 100%
[30]
  residual activity: 100%
[31]
  residual activity: 100%
[32]
  residual activity: 100%
[33]
  residual activity: 100%
[34]
  residual activity: 100%
[35]
  residual activity: 100%
[36]
  residual activity: 100%
[37]
  residual activity: 100%
[38]
  residual activity: 100%
[39]
  residual activity: 80%
[40]
  residual activity: 80%
[41]
  residual activity: 100%
[42]
  residual activity: 100%
[43]
  inhibition: 31.2%
[44]
  inhibition: 32%
[45]
  inhibition: 92.7%
